Test results as given in ChEMBL document CHEMBL1135325, “Novel piperidinium and pyridinium agents as water-soluble acetylcholinesterase inhibitors for the reversal of neuromuscular blockade” (Bioorg Med Chem Lett, 2002).
Blank lines part the entries; values can stand above or below the compound they belong to.

Columns and labels:
[1] = molecular target: Acetylcholinesterase (Homo sapiens, UniProt P22303); assay: Concentration required for the inhibition of acetylcholinesterase
[2] = Aqueous solubility; type: physicochemical; conditions: water; for solubility: read-out: S
[3] = Aqueous solubility

Sequence of Acetylcholinesterase (P22303 whole entry): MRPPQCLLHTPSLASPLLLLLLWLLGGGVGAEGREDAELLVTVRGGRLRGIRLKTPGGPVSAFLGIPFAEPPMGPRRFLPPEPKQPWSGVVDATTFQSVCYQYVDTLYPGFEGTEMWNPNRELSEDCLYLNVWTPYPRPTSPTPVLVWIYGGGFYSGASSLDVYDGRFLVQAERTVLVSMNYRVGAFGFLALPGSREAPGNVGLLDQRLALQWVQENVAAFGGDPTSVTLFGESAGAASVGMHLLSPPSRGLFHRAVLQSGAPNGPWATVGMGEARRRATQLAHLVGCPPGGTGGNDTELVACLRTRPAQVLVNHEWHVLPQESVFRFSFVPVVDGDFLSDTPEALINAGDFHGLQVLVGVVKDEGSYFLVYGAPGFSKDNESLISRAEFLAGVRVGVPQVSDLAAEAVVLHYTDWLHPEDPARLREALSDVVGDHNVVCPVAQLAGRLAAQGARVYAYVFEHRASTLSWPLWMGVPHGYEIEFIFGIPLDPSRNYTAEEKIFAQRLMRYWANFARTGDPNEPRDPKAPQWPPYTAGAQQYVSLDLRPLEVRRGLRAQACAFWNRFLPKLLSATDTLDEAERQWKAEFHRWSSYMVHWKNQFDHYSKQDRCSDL

Compound: COc1cc2cc(C(=O)CC(O)C3CC[N+](C)(Cc4ccccc4)CC3)sc2cc1OC.[Br-] (single isomer, unassigned; (-))
- IC50 [1]: 665 nM
- S [2]: 8 mg/mL

Compound: CCOCC[n+]1ccc(CCC(=O)c2cc3cc(OC)c(OC)cc3s2)cc1
- IC50 [1]: 7 nM
- solubility [2]: 50000 µg/mL

Compound: COc1cc2cc(C(=O)CC(O)C3CC[N+](C)(Cc4ccccc4)CC3)sc2cc1OC.[Br-] (stereo in doubt; 6)
- IC50 [1]: 43 nM
- S [2]: 10 mg/mL

Compound: COc1cc2cc(C(=O)CC(OC)C3CC[N+](C)(Cc4ccccc4)CC3)sc2cc1OC.[Br-] (stereo not drawn)
- IC50 [1]: 120 nM
- solubility [2]: 1500 µg/mL

Compound: COc1cc2cc(C(=O)CCC3CC[N+](C)(CC4CCCCO4)CC3)sc2cc1OC.[Br-] (stereo not drawn)
- IC50 [1]: 28 nM
- solubility [2]: 1500 µg/mL

Compound: COc1cc2cc(C(=O)CCc3cc[n+](Cc4ccsc4)cc3)sc2cc1OC
- IC50 [1]: 6 nM
- solubility [2]: 2000 µg/mL

Compound: COc1cc2cc(C(=O)CCC3CC[N+](C)(CC(=O)OC(C)(C)C)CC3)sc2cc1OC.[Br-] (stereo not drawn)
- IC50 [1]: 79 nM
- solubility [2]: 1500 µg/mL

Compound: COc1cc2cc(C(=O)CCc3cc[n+](CC4CC4)cc3)sc2cc1OC.[Br-]
- IC50 [1]: 110 nM
- solubility [2]: 15000 µg/mL

- solubility [2]: 16000 µg/mL
Compound: CCC[n+]1ccc(CCC(=O)c2cc3cc(OC)c(OC)cc3s2)cc1.[Br-]

Compound: COc1cc2cc(C(=O)CCCCC3CC[N+](C)(Cc4ccccc4)CC3)sc2cc1OC.[Br-] (stereo not drawn)
- IC50 [1]: 110 nM
- solubility [2]: 1000 µg/mL

Compound: COc1cc2cc(C(=O)CCC3CC[N+](C)(CC#N)CC3)sc2cc1OC.[Br-] (stereo not drawn)
- IC50 [1]: > 1000 nM
- solubility [2]: 2000 µg/mL

Compound: COc1cc2cc(C(=O)CCC3CC[N+](C)(CCOc4ccccc4)CC3)sc2cc1OC.[Br-] (stereo not drawn)
- IC50 [1]: 390 nM
- solubility [2]: 900 µg/mL

Compound: COc1cc2cc(C(=O)CC(O)C3CC[N+](C)(Cc4ccccc4)CC3)sc2cc1OC (stereo in doubt; 9) [listing 1 of 2 here]
- IC50 [1]: 190 nM

- solubility [2]: 2000 µg/mL
Compound: COc1cc2cc(C(=O)CCC3CC[N+](C)(Cc4ccccc4)CC3)sc2cc1OC.[Br-] (stereo not drawn)

Compound: COc1cc2cc(C(=O)C=C3CC[N+](C)(Cc4ccccc4)CC3)sc2cc1OC.[Br-] (stereo not drawn)
- IC50 [1]: 520 nM
- solubility [2]: 25000 µg/mL

Compound: COCC[N+]1(C)CCC(CCC(=O)c2cc3cc(OC)c(OC)cc3s2)CC1.[Br-] (stereo not drawn)
- IC50 [1]: 53 nM
- solubility [2]: 60000 µg/mL

Compound: COc1cc2cc(C(=O)CCc3cc[n+](Cc4ccccc4)cc3)sc2cc1OC
- solubility [2]: 2000 µg/mL

Compound: COc1cc2cc(C(=O)CCC3CC[N+](C)(Cc4ccc([N+](=O)[O-])o4)CC3)sc2cc1OC.[Br-] (stereo not drawn)
- IC50 [1]: 32 nM
- solubility [2]: 600 µg/mL

Compound: COc1cc2cc(C(=O)CC(O)C3CC[N+](C)(Cc4ccccc4)CC3)sc2cc1OC.[Br-] (single isomer, unassigned; (+))
- IC50 [1]: 219 nM
- solubility [2]: 10000 µg/mL

Compound: COc1cc2cc(C(=O)CC3(O)CC[N+](C)(Cc4ccccc4)CC3)sc2cc1OC.[Br-] (stereo not drawn)
- solubility [2]: 1250 µg/mL

Compound: COCC[n+]1ccc(CCC(=O)c2cc3cc(OC)c(OC)cc3s2)cc1
- IC50 [1]: 30 nM
- solubility [2]: 33000 µg/mL

Compound: CC[n+]1ccc(CCC(=O)c2cc3cc(OC)c(OC)cc3s2)cc1.[Br-]
- IC50 [1]: 280 nM
- solubility [2]: 25000 µg/mL

Compound: COc1cc2cc(C(=O)CC3=CC[N+](C)(Cc4ccccc4)CC3)sc2cc1OC.[Br-] (stereo not drawn)
- IC50 [1]: 750 nM
- solubility [2]: 20000 µg/mL

Compound: COc1cc2cc(C(=O)CCc3cc[n+](Cc4ccc(F)cc4)cc3)sc2cc1OC
- IC50 [1]: 2.6 nM
- solubility [2]: 1000 µg/mL

Compound: COc1cc2cc(C(=O)CCc3cc[n+](CC4CCC4)cc3)sc2cc1OC.[Br-]
- IC50 [1]: 40 nM
- solubility [2]: 6000 µg/mL

Compound: COc1cc2cc(C(=O)CCc3cc[n+](C)cc3)sc2cc1OC.[Br-]
- IC50 [1]: 900 nM
- solubility [2]: 3000 µg/mL

Compound: COc1cc2cc(CC3CC[N+](C)(Cc4ccccc4)CC3)sc2cc1OC.[Br-] (stereo not drawn)
- IC50 [1]: 10000 nM
- solubility [2]: 3000 µg/mL

Compound: COC(=O)c1ccc(C[n+]2ccc(CCC(=O)c3cc4cc(OC)c(OC)cc4s3)cc2)cc1
- solubility [2]: 3500 µg/mL

Compound: COc1cc2cc(C(O)C3CC[N+](C)(Cc4ccccc4)CC3)sc2cc1OC.[Br-] (stereo not drawn)
- IC50 [1]: 19600 nM
- solubility [2]: 2000 µg/mL

Compound: COc1cc2cc(C(=O)CC(O)CCC3CC[N+](C)(Cc4ccccc4)CC3)sc2cc1OC.[Br-] (stereo not drawn)
- IC50 [1]: 380 nM
- solubility [2]: 2500 µg/mL

Compound: COc1cc2cc(C(=O)CC(O)C3CC[N+](C)(Cc4ccccc4)CC3)sc2cc1OC (stereo in doubt; 9) [listing 2 of 2 here]
- Solubility [3]: 10000 µg/mL

Compound: COC(=O)C[N+]1(C)CCC(CCC(=O)c2cc3cc(OC)c(OC)cc3s2)CC1.[Br-] (stereo not drawn)
- IC50 [1]: 54 nM
- solubility [2]: 60000 µg/mL

Compound: COc1cc2cc(C(=O)CCc3cc[n+](Cc4ccc([N+](=O)[O-])o4)cc3)sc2cc1OC.[Br-]
- IC50 [1]: 4.5 nM
- solubility [2]: 35000 µg/mL

Compound: COc1cc2cc(C=C3CC[N+](C)(Cc4ccccc4)CC3)sc2cc1OC.[Br-] (stereo not drawn)
- IC50 [1]: 2670 nM
- solubility [2]: 1000 µg/mL

Compound: C=CC[n+]1ccc(CCC(=O)c2cc3cc(OC)c(OC)cc3s2)cc1.[Br-]
- IC50 [1]: 540 nM
- solubility [2]: 25000 µg/mL
